# Source: patent publication US20210070748A1, “INHIBITORS OF BRUTONS TYROSINE KINASE” (Pharmacyclics LLC, priority 2015, published 2021)
# Key:
# Format in all cases: biochemical
# EGFR = EGFR (Homo sapiens, UniProt P00533); test: Inhibition of a panel of kinases, in vitro HotSpot kinase assay: EGFR; details: D-compounds panel data; 1 μM ATP
# Description: (§1) The degree of inhibition of a panel of kinases is determined using the in vitro HotSpot kinase assay (purified enzymes, ^33P-ATP, an appropriate substrate and 1 μM ATP).
# ITK = target: T1, ITK (Homo sapiens, UniProt Q08881); test: Inhibition of a panel of kinases, in vitro HotSpot kinase assay: ITK; details: D-compounds panel data; 1 μM ATP
# T1 sequence (Q08881 1-620): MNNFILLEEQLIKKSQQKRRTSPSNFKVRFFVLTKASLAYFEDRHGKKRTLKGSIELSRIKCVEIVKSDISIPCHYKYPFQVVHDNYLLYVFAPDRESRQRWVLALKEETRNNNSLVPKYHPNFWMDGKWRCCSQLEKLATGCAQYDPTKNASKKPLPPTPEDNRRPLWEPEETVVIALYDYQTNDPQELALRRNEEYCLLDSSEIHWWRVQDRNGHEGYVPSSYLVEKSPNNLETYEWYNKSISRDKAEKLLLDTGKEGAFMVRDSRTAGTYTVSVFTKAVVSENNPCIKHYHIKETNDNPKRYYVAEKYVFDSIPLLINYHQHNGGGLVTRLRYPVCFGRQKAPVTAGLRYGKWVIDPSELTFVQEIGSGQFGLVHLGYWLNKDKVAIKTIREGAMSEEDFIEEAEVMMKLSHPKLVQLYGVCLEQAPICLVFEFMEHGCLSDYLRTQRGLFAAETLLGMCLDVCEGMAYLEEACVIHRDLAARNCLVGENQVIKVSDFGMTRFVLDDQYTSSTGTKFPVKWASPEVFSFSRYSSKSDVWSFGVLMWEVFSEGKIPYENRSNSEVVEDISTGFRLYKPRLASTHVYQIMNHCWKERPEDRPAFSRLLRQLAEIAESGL
# Description: as §1
# LCK = LCK (Homo sapiens, UniProt P06239); test: Inhibition of a panel of kinases, in vitro HotSpot kinase assay: LCK; details: D-compounds panel data; 1 μM ATP; read-out: IC50 LCK
# LCK, sequence (P06239 whole entry): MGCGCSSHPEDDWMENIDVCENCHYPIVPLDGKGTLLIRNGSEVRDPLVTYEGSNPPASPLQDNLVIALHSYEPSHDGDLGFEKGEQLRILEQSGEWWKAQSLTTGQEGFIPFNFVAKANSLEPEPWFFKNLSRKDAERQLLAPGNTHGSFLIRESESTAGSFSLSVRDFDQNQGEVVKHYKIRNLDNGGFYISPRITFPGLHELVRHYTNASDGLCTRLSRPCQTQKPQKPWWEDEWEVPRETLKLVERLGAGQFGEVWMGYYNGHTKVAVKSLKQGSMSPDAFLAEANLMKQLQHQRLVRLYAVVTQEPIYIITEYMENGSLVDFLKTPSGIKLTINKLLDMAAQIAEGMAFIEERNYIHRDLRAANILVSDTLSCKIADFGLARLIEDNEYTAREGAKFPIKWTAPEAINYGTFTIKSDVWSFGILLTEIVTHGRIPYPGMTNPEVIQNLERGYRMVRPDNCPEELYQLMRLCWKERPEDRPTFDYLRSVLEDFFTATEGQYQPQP
# TEC = target: T2, TEC (Homo sapiens, UniProt P42680); test: Inhibition of a panel of kinases, in vitro HotSpot kinase assay: TEC; details: D-compounds panel data; 1 μM ATP
# T2 sequence (P42680 1-631): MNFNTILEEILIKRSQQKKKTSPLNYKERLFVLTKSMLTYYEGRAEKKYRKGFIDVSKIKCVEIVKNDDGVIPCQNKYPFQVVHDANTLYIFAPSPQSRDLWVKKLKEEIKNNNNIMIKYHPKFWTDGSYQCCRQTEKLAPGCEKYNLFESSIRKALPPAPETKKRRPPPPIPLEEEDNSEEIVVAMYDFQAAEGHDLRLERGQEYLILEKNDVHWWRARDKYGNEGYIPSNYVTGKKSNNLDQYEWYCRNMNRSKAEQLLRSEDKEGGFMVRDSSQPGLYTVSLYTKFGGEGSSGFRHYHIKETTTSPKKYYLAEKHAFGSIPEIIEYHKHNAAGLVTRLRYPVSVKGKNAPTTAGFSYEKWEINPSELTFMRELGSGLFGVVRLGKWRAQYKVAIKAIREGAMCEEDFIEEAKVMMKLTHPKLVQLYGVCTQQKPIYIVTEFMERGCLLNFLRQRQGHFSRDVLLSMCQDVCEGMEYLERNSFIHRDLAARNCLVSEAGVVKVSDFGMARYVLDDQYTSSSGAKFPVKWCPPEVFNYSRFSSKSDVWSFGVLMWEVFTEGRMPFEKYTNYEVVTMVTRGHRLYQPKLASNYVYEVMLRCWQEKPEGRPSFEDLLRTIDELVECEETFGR
# Description: as §1
# SRC = SRC (Homo sapiens, UniProt P12931); test: Inhibition of a panel of kinases, in vitro HotSpot kinase assay: SRC; details: D-compounds panel data; 1 μM ATP
# SRC, sequence (P12931 whole entry): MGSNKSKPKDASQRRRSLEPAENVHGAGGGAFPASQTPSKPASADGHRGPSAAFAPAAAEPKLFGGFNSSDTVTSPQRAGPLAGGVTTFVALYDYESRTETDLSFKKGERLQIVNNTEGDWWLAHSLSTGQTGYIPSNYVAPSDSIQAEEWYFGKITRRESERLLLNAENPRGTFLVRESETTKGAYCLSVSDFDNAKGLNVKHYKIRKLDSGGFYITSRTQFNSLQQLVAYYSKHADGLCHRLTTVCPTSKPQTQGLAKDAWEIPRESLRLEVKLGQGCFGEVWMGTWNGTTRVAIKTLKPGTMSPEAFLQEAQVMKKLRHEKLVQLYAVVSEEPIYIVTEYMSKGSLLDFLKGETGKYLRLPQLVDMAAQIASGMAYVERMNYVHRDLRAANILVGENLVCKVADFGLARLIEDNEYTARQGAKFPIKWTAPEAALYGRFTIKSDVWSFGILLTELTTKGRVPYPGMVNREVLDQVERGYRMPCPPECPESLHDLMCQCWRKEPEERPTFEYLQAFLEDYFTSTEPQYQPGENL
# Description: as §1
# JAK3 = target: T3, JAK3 (Homo sapiens, UniProt P52333); test: Inhibition of a panel of kinases, in vitro HotSpot kinase assay: JAK3; details: D-compounds panel data; 1 μM ATP; read-out: IC50 JAK3
# T3 sequence (P52333 1-1124): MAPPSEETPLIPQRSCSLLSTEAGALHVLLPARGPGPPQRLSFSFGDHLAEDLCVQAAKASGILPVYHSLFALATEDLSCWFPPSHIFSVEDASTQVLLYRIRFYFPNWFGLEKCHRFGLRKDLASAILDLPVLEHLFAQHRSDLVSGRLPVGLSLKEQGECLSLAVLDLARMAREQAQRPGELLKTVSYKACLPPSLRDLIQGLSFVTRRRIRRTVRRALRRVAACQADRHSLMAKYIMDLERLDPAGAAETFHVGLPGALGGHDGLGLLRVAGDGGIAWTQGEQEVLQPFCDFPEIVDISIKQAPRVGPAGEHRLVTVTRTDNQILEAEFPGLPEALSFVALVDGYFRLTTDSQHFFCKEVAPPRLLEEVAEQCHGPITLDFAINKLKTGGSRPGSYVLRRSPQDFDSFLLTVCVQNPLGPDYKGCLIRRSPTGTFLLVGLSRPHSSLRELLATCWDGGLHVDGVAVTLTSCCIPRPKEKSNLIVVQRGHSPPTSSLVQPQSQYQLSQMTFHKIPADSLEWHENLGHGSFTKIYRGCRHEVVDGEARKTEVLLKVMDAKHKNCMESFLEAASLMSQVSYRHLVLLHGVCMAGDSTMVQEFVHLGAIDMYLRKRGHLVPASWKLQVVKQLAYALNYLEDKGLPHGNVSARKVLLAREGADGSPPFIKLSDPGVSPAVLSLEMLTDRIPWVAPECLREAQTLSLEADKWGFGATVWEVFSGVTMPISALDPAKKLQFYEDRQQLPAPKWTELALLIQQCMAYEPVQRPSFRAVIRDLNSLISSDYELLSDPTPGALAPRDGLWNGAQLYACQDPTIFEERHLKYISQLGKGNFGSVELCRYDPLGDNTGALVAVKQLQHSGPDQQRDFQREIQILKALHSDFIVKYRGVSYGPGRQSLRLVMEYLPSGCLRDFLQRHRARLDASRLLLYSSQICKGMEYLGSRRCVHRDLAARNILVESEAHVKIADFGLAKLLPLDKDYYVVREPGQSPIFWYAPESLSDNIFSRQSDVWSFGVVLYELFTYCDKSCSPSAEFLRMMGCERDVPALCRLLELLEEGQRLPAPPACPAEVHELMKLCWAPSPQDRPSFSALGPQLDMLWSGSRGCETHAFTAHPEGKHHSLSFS
# EGFR, sequence (P00533 25-1210): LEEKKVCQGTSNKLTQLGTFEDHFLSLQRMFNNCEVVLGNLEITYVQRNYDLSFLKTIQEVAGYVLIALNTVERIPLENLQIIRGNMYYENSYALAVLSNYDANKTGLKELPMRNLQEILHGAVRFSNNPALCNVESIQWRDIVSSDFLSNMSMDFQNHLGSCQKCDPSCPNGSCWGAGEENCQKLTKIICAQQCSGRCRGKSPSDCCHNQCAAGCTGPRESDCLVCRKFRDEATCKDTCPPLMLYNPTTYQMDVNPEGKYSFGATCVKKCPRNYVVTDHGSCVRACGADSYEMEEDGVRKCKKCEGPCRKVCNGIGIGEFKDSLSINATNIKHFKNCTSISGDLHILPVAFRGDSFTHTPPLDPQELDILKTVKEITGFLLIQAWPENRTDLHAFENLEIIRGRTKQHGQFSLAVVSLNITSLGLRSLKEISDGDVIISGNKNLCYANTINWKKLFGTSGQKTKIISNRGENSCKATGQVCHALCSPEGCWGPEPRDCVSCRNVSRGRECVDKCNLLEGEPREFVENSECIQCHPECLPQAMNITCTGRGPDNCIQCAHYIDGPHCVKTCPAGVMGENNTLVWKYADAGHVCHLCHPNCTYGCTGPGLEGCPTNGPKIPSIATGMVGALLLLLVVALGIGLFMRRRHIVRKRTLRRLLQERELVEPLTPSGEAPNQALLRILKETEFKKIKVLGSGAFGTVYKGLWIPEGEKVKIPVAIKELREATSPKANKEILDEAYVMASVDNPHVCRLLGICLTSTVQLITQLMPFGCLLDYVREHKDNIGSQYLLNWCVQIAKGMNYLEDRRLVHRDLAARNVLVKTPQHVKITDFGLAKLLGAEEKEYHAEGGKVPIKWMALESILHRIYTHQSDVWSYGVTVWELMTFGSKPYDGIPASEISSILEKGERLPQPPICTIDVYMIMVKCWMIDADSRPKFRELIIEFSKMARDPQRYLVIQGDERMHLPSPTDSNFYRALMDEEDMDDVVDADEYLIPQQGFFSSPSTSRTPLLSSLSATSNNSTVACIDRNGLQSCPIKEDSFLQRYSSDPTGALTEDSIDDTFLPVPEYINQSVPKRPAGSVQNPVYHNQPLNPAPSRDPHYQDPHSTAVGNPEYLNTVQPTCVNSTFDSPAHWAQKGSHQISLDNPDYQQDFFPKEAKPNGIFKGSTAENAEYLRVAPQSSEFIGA
SMILES,IC50 (EGFR) [nM],IC50 (ITK) [nM],IC50 (LCK) [nM],IC50 (TEC) [nM],IC50 (SRC) [nM],IC50 (JAK3) [nM]
"C[C@@H]1[C@H](NC(=O)c2ccc(C3(O)CC3)cc2)CCCN1c1cnc(C(N)=O)c(Nc2cnn(C)c2)n1 [Example D-235, 5-[(2R,3R)-3-[4-(1-hydroxycyclopropyl)benzamido]-2-methylpiperidin-1-yl]-3-[(1-methyl-1H-pyrazol-4-yl)amino]pyrazine-2-carboxamide]",100 to 1000,100 to 1000,100 to 1000,≤ 10,10 to 100,100 to 1000
"C[C@H]1CC[C@@H](NC(=O)c2ccc(C(C)(C)O)cc2)CN1c1cnc(C(N)=O)c(Nc2cnn(C)c2)n1 [Example D-236, 5-[(2S,5R)-5-[4-(2-hydroxypropan-2-yl)benzamido]-2-methylpiperidin-1-yl]-3-[(1-methyl-1H-pyrazol-4-yl)amino]pyrazine-2-carboxamide]",100 to 1000,100 to 1000,10 to 100,≤ 10,10 to 100,100 to 1000
"C[C@@H]1[C@H](NC(=O)c2ccc3scnc3c2)CCCN1c1cnc(C(N)=O)c(Nc2cnn(C)c2)n1 [Example D-237, N-[(2R,3R)-1-{5-carbamoyl-6-[(1-methyl-1H-pyrazol-4-yl)amino]pyrazin-2-yl}-2-methylpiperidin-3-yl]-1,3-benzothiazole-5-carboxamide]",1000 to 10000,100 to 1000,10 to 100,≤ 10,10 to 100,100 to 1000
"Cc1nc2cc(C(=O)N[C@@H]3CCCN(c4cnc(C(N)=O)c(Nc5cnn(C)c5)n4)[C@@H]3C)ccc2o1 [Example D-238, N-[(2R,3R)-1-{5-carbamoyl-6-[(1-methyl-1H-pyrazol-4-yl)amino]pyrazin-2-yl}-2-methylpiperidin-3-yl]-2-methyl-1,3-benzoxazole-5-carboxamide]",100 to 1000,100 to 1000,10 to 100,≤ 10,10 to 100,100 to 1000
"C[C@@H]1[C@H](NC(=O)c2cnc(C(C)(C)C)s2)CCCN1c1cnc(C(N)=O)c(Nc2cnn(C)c2)n1 [Example D-239, 5-[(2R,3R)-3-(2-tert-butyl-1,3-thiazole-5-amido)-2-methylpiperidin-1-yl]-3-[(1-methyl-1H-pyrazol-4-yl)amino]pyrazine-2-carboxamide]",100 to 1000,100 to 1000,10 to 100,≤ 10,10 to 100,100 to 1000
"C[C@@H]1[C@H](NC(=O)c2ccc(C(O)(C(F)(F)F)C(F)(F)F)cc2)CCCN1c1cnc(C(N)=O)c(Nc2cnn(C)c2)n1 [Example D-240, 5-[(2R,3R)-3-[4-(1,1,1,3,3,3-hexafluoro-2-hydroxypropan-2-yl)benzamido]-2-methylpiperidin-1-yl]-3-[(1-methyl-1H-pyrazol-4-yl)amino]pyrazine-2-carboxamide]",100 to 1000,100 to 1000,100 to 1000,10 to 100,100 to 1000,1000 to 10000
"C[C@@H]1[C@H](NC(=O)c2ccc(SC(F)(F)F)cc2)CCCN1c1cnc(C(N)=O)c(Nc2cnn(C)c2)n1 [Example D-241, 3-[(1-methyl-1H-pyrazol-4-yl)amino]-5-[(2R,3R)-2-methyl-3-{4-[(trifluoromethyl)sulfanyl]benzamido}piperidin-1-yl]pyrazine-2-carboxamide]",100 to 1000,1000 to 10000,100 to 1000,10 to 100,10 to 100,1000 to 10000
"Cc1nc2cc(C(=O)N[C@@H]3CCCN(c4cnc(C(N)=O)c(Nc5cnn(C)c5)n4)[C@@H]3C)ccc2s1 [Example D-242, N-[(2R,3R)-1-{5-carbamoyl-6-[(1-methyl-1H-pyrazol-4-yl)amino]pyrazin-2-yl}-2-methylpiperidin-3-yl]-2-methyl-1,3-benzothiazole-5-carboxamide]",1000 to 10000,100 to 1000,100 to 1000,≤ 10,10 to 100,100 to 1000
